# Reference: patent US9180155B2, “Compositions from Nigella sativa” (Bio Nexus, Ltd, priority 2013, dated 2015)
# Tested on: IL-6 secretion in 3T3-L1 adipocytes
# Assay: IL-6 secretion in t10-CLA-stimulated 3T3-L1 adipocytes
# Assay type: cell-based, murine
# Conditions: t10-CLA 50 μM control = 100; μg TQ equivalents/mL: Thymoquinone 5.0, NS8 0.11, NS9 0.99, NS10 0.012, NSSpent#2 0.0005; NSSpent#1 5 μg/mL; listed as TQ
# Protocol: The 3T3-L1 murine fibroblast model as used in Example 4 was used in this experiments. Test materials were added four hours prior to the addition of t10-CLA at a concentration of 50 μM. Following overnight incubation, the supernatant media were sampled for determination of IL-6 and adiponectin. The IL-6 secreted into the medium in response to […] stimulation was quantified using the Quantikine® Mouse IL-6 Immunoassay kit with no modifications (R&D Systems, Minneapolis, Minn.). […] All supernatant media samples were diluted 1:30 for quantification. Test materials and were assayed in duplicate, while solvent controls were replicated eight times. IL-6 and adiponectin secretion were represented relative to the IL-6 and adiponectin secretion of the t10-CLA only controls as the IL-6 and adiponectin index and differences among the means were analyzed by the student's t-test assuming a five percent probability of a type I error (Excel; Microsoft, Redmond, Wash.).
compound,measurement,value
"CC1=CC(=O)C(C(C)C)=CC1=O [Thymoquinone, thymoquinone]",IL-6 Index,inhibited IL-6 secretion
